“Also recorded” adds a separate entry of the source. Square brackets hold non-standard residues; d marks the D form. Peptide text beside a SMILES is read from it. pY = N[C@@H](Cc1ccc(OP(=O)(O)O)cc1)C(=O)O; 2Nal = N[C@@H](Cc1ccc2ccccc2c1)C(=O)O
Key:
mammalian cells = settings: Qian et al. 2013; cited from earlier work
HeLa cells = test: Cellular (cytosolic) uptake of NF-labeled peptides by flow cytometry (MFI); format: cell-based; settings: HeLa cells, flow cytometry
Description: HeLa cells were treated with 5 μM peptide for 2 h, and their cell uptake efficiencies were determined by flow cytometry analysis. The mean fluorescence intensity (MFI) values derived from cytometry analyses reflect the amounts of peptides inside the cytosol and nucleus, whereas any NF-labeled peptide entrapped inside the acidic endosomes are invisible under the experimental conditions (Id.; Qian, Z et al. Chem. Commun. 2015, 51, 2162-2165).
(§1) The binding affinity of BH23 (unlabeled) for the Grb2 SH2 domain was then determined by examining its ability to compete with the FAM-labeled ligand for binding to the Grb2 SH2 domain by fluorescence polarization (FP). […] Next, BH23 was labeled with NF at the Asn side chain through a miniPEG-Lys linker and its cytosolic entry efficiency was quantitated by treating HeLa cells with 5 μM of the labeled peptide for 2 h before flow cytometry analysis. […] BH23 was also similarly labeled at the Asn side chain with FAM and its entry into HeLa cells was examined by live-cell confocal microscopy. […] Two control peptides (BH24 and BH25) were also prepared for cellular assays. BH24 and BH25 are structurally similar to BH23, except that BH24 contained a Tyr instead of the pY residue (FIG. 11), whereas in BH25 the two hydrophobic residues critical for cellular uptake (Nal-arg) were replaced with Ala-ala (FIG. 12).
BHT1 and BHT2 were labeled with naphthofluorescein (NF) and their cytosolic uptake into HeLa cells was determined by flow cytometry (Table 10).
Additional cell penetrating compounds were prepared and tested for cytosolic delivery. In these compounds there was no beta-hairpin turn creating moiety.

[1] = tested on: HO-1 protein (Keap1-Nrf2-ARE pathway), HEK293 cells; test: Anti-HO1 immunoblot of HO-1 protein level in HEK293 cells; format: cell-based, human
Description: FIG. 5 is an image from a Western blot analysis of HO-1 protein levels in HEK293 cells untreated or after treatment with SFN (10 μM) or a cyclic β-hairpin peptide (40 μM).
FIG. 8 is a western blot showing the effect of peptide BH15 on the protein level of HO-1, a protein downstream of the Keap1-Nrf2-ARE pathway. SFN, a small-molecule positive control; blank, no inhibitor.
The cellular activity of Keap1-Nrf2 inhibitors BH13-18 was assessed by examining their effects on the expression levels of HO-1 protein, by anti-HO1 immunoblot analysis. HO-1 is an antioxidant enzyme under the transcriptional control of Nrf2 binding to the ARE, and disruption of the Keap1-Nrf2 interaction is expected to increase the protein level of HO-1.
(§2) BH15 enters human cells, binds and inhibits the function of Keap1 (which promotes the ubiquitination and degradation of Nrf2), resulting in increased intracellular levels of Nrf2, a transcription factor. […] This in turn results in the increased levels of HO-1, a protein whose expression is controlled by Nrf2.

[2] = tested on: Nrf2 protein level, HEK293 cells; test: Western blot of Nrf2 protein level in cytoplasm and nucleus of HEK293 cells; format: cell-based, human; settings: varying doses
Description: The cellular activity of Keap1-Nrf2 Inhibitor BH15 was characterized, and it was observed that BH15 is biologically active in cell-based assays. Varying doses of BH15 were provided to HEK293 cells in culture. After a period of time, the cells were lysed, and cytosolic fractions were separated from nuclear fractions.
as §2

Keap1-Nrf2 interaction = Keap1-Nrf2 interaction (Homo sapiens, UniProt Q14145); test: Fluorescence anisotropy-based competition assay, inhibition of Keap1-Nrf2 peptide interaction; format: binding; settings: for IC50: FA competition with fluorescently labeled Nrf2 peptide and Keap1; for Decrease of affinity for Keap1 / inhibition potency: Asn-Ala analogues vs Asp-Pro parents (BH13, BH15, BH17), BH19: truncation of cargo to 6-aa
Description: The percentage of inhibition was calculated from the fluorescence anisotropy decrease by using equation % Inhibition=(FAmax−FAobs)/(FAmax−FAmin)×100% and plotted against the inhibitor concentration.

Grb2 SH2 domain = Grb2 SH2 domain (Homo sapiens, UniProt P62993); test: FP-based competition assay with FAM-labeled reporter ligand for Grb2 SH2 domain; format: binding
Description: FIG. 10(a) is the structure of a Grb2 SH2 ligand. […] This ligand was used as reporter ligand in FA/FP-based competition assays to determine the binding affinities of new Grb2 SH2 domain ligands.
as §1

[3] = tested on: Grb2/Ras signaling pathway, MDA-MB-468 breast cancer cells; test: Western blot of MEK and ERK1/2 phosphorylation in EGF-stimulated MDA-MB-468 cells; format: cell-based; settings: peptide 2 h, EGF 50 ng/mL 10 min
Description: FIG. 13 provides western blots depicting the effect of peptides BH23, BH24, and BH25 on the Grb2/Ras signaling pathway. MDA-MB-468 cells were treated with the indicated concentrations of peptide BH23 (a) or control peptides BH24 and BH25 (b) for 2 h and stimulated with EGF (50 ng/mL) for 10 min. The cells were then lysed and the cell lysates were separated on SDS-PAGE and blotted with antibodies specific for phosphorylated and total kinases in the Ras signaling pathway. Glyceraldehyde 3-phosphate dehydrogenase (GAPDH) was used as the loading control. […] Inhibition of ERK1/2 phosphorylation was less dramatic, as expected from its further downstream position on the Grb2/Ras signaling pathway.
FIG. 14(a) is the structure of BH26. FIG. 14(b) provides western blots showing the effect of peptides BH23 and BH26 on the Grb2/Ras signaling pathway. MDA-MB-468 cells were treated with the indicated concentrations of BH23 or BH26 for 2 h and stimulated with EGF (50 ng/mL) for 10 min. The cells were then lysed and the cell lysates were separated on SDS-PAGE and blotted with antibodies specific for phosphorylated and total kinases in the Ras signaling pathway.
BH23 and BH24 were tested for their ability to inhibit the Grb2/Ras signaling pathways, by monitoring the phosphorylation of MEK and ERK1/2 kinases downstream of Ras.

[4] = LaRochelle et al. 2015; cited from earlier work

Sequence of Grb2 SH2 domain (P62993 60-152 limits assumed): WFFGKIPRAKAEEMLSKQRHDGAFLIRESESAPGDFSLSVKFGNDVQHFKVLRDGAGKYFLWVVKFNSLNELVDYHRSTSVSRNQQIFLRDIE
Sequence of Keap1-Nrf2 interaction (Q14145 321-609 limits assumed): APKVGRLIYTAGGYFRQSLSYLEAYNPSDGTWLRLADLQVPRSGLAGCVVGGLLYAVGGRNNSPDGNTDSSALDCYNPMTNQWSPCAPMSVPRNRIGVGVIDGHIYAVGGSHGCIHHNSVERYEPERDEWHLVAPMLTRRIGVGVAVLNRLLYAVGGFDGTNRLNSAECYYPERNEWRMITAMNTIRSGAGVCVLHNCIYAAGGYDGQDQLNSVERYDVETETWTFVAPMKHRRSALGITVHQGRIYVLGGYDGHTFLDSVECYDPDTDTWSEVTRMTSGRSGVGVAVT

Molecule: cyclo(F-Φ-R-R-R-R-Q)-miniPEG-K(NF) (cyclo(F[2Nal]RRRRQ); not fully specified (residue 7); printed as cyclo(F-Φ-R-R-R-R-Q)-miniPEG-K(NF)) [CPP1, reference compound]
- Efficiency of entry into cytoplasm and nucleus, fold higher than nonaarginine (R9) (mammalian cells): 2-5 fold
- Cellular Uptake (MFINF, %) (HeLa cells; 5 μM NF-labeled peptide, 2 h, relative to CPP1 (100%)): 100%
- Cellular Uptake (MFI^NF, %) of Keap1-Nrf2 inhibitors (HeLa cells; NF-labeled peptide, relative to CPP1 (100%)): 100%

Molecule: CC(C)C[C@@H]1NC(=O)[C@H](Cc2ccccc2)NC(=O)[C@H](CCCNC(=N)N)NC(=O)[C@H](CCCNC(=N)N)NC(=O)[C@@H]2CCCN2C(=O)[C@H]2CCCN2C(=O)[C@@H](CCCNC(=N)N)NC(=O)[C@H](Cc2ccc3ccccc3c2)NC(=O)[C@H](Cc2ccccc2)NC(=O)[C@H](Cc2ccccc2)NC(=O)[C@H](CCC(=O)O)NC(=O)CNC(=O)[C@H]([C@@H](C)O)NC(=O)[C@H](CCC(=O)O)NC(=O)[C@@H]2CCCN2C(=O)[C@H](CC(=O)O)NC1=O [BH15, cyclo(F-F-Φ-r-p-P-R-R-F-L-D-P-E-T-G-E)]
- HO-1 level, dose response ([1]; varying doses): dose-dependently increased
- Nrf2 levels in cytosolic and nuclear fractions [2]: dose-dependently increased
- IC50 (Keap1-Nrf2 interaction): ~160 nM

Molecule: CC(C)[C@@H]1NC(=O)[C@H](Cc2ccc(O)cc2)NC(=O)[C@H](CCCNC(=N)N)NC(=O)[C@H](CCCNC(=N)N)NC(=O)[C@@H]2CCCN2C(=O)[C@H]2CCCN2C(=O)[C@@H](CCCNC(=N)N)NC(=O)[C@H](Cc2ccc3ccccc3c2)NC(=O)[C@H](Cc2ccccc2)NC(=O)[C@H](CC(N)=O)NC1=O [BH24, cyclo[F-Φ-r-p-P-R-R-Y-V-N)] (cyclo(YVNF[2Nal][dR][dP]PRR))
- Binding to the Grb2 SH2 domain (in words) (Grb2 SH2 domain; competition with fluorescently labeled reporter ligand): no detectable binding; also recorded: inability to compete
- IC50 (Grb2 SH2 domain; unlabeled peptide, FP-based competition with FAM-labeled ligand, read-out: IC50 Value, binding to Grb2 SH2 domain): > 10000 nM
- Phosphorylation of MEK [3]: did not decrease and not

Molecule: CC(C)C[C@@H]1NC(=O)[C@H](Cc2ccccc2)NC(=O)[C@H](CCCNC(=N)N)NC(=O)[C@H](CCCNC(=N)N)NC(=O)[C@@H]2CCCN2C(=O)[C@H]2CCCN2C(=O)[C@@H](CCCNC(=N)N)NC(=O)[C@H](Cc2ccc3ccccc3c2)NC(=O)[C@H](Cc2ccccc2)NC(=O)[C@H](CCC(=O)O)NC(=O)CNC(=O)[C@H]([C@@H](C)O)NC(=O)[C@H](CCC(=O)O)NC(=O)[C@H](C)NC(=O)[C@H](CC(N)=O)NC1=O [BH18, cyclo(F-Φ-r-p-P-R-R-F-L-N-A-E-T-G-E)] (cyclo(F[2Nal][dR][dP]PRRFLNAETGE))
- Decrease of affinity for Keap1 / inhibition potency (Keap1-Nrf2 interaction): ~10 fold
- IC50 (Keap1-Nrf2 interaction): 1400 ± 150 nM

Molecule: CC(C)[C@@H]1NC(=O)[C@H](Cc2ccc(OP(=O)(O)O)cc2)NC(=O)[C@H](CCCNC(=N)N)NC(=O)[C@H](CCCNC(=N)N)NC(=O)[C@@H]2CCCN2C(=O)[C@H]2CCCN2C(=O)[C@@H](C)NC(=O)[C@H](C)NC(=O)[C@H](Cc2ccccc2)NC(=O)[C@H](CC(N)=O)NC1=O [BH25, cyclo[F-A-a-p-P-R-R-pY-V-N)] (cyclo([pY]VNFA[dA][dP]PRR))
- Cellular entry / delivery efficiency (in words) (HeLa cells): poor cellular uptake
- Phosphorylation of MEK [3]: did not decrease and not

Molecule: CC(C)C[C@@H]1NC(=O)[C@H](Cc2ccccc2)NC(=O)[C@H](CCCNC(=N)N)NC(=O)[C@H](CCCNC(=N)N)NC(=O)[C@@H]2CCCN2C(=O)[C@H]2CCCN2C(=O)[C@@H](CCCNC(=N)N)NC(=O)[C@H](Cc2ccc3ccccc3c2)NC(=O)[C@H](Cc2ccccc2)NC(=O)[C@H](Cc2ccccc2)NC(=O)[C@H](CCC(=O)O)NC(=O)CNC(=O)[C@H]([C@@H](C)O)NC(=O)[C@H](CCC(=O)O)NC(=O)[C@H](C)NC(=O)[C@H](CC(N)=O)NC1=O [BH16, cyclo(F-F-Φ-r-p-P-R-R-F-L-N-A-E-T-G-E)] (cyclo(FF[2Nal][dR][dP]PRRFLNAETGE))
- Decrease of affinity for Keap1 / inhibition potency (Keap1-Nrf2 interaction): ~10 fold

Molecule: C[C@@H]1NC(=O)[C@H](CC(N)=O)NC(=O)[C@H](Cc2ccccc2)NC(=O)[C@H](CCCNC(=N)N)NC(=O)[C@H](CCCNC(=N)N)NC(=O)[C@@H]2CCCN2C(=O)[C@H]2CCCN2C(=O)[C@@H](CCCNC(=N)N)NC(=O)[C@H](Cc2ccc3ccccc3c2)NC(=O)[C@H](Cc2ccccc2)NC(=O)[C@H](CCC(=O)O)NC(=O)CNC(=O)[C@H]([C@@H](C)O)NC(=O)[C@H](CCC(=O)O)NC1=O [BH19, cyclo(F-Φ-r-p-P-R-R-F-N-A-E-T-G-E)] (cyclo(F[2Nal][dR][dP]PRRFNAETGE))
- Decrease of affinity for Keap1 / inhibition potency (Keap1-Nrf2 interaction): 34 fold

Molecule: CC(C)C[C@@H]1NC(=O)[C@H](CCC(N)=O)NC(=O)[C@H](Cc2ccccc2)NC(=O)[C@H](CCCNC(=N)N)NC(=O)[C@H](CCCNC(=N)N)NC(=O)[C@@H]2CCCN2C(=O)[C@H]2CCCN2C(=O)[C@@H](CCCNC(=N)N)NC(=O)[C@H](Cc2ccc3ccccc3c2)NC(=O)[C@H](Cc2ccccc2)NC(=O)[C@H](Cc2ccccc2)NC(=O)[C@H](CCC(=O)O)NC(=O)CNC(=O)[C@H]([C@@H](C)O)NC(=O)[C@H](CCC(=O)O)NC(=O)[C@@H]2CCCN2C(=O)[C@H](CC(=O)O)NC1=O [BH13, cyclo(F-F-Φ-r-p-P-R-R-F-Q-L-D-P-E-T-G-E)] (cyclo(FF[2Nal][dR][dP]PRRFQLDPETGE))
- IC50 (Keap1-Nrf2 interaction): ~160 nM

Molecule: C[S+]([O-])CCCCN=C=S (stereo not drawn) [SFN, Sulforaphane, reference compound]
- HO-1 level (positive control) ([1]; 10 μM): increased

Molecule: nonaarginine (RRRRRRRRR) [Peptide R9]
- Cytosolic delivery efficiency (ratio of cytosolic over extracellular cargo concentrations) [4]: 4.4%
